According to the supplement of paper PMC10307832:

Tests used:
Experiment in all cases: relative viability (nuclei count vs DMSO), 5 days (fraction); higher = more cells survive
RO-3306 + Trametinib = compound: C1=CC2=C(C=CC(=C2)C=C3C(=O)NC(=NCC4=CC=CS4)S3)N=C1 [RO-3306] + CC(=O)Nc1cccc(-n2c(=O)n(C3CC3)c(=O)c3c(Nc4ccc(I)cc4F)n(C)c(=O)c(C)c32)c1 [Trametinib] (partner 0.02 µM)
How it was run: (§1)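 Lung cancer cell lines in 1536-well plates got either a single drug or a fixed anchor-drug dose together with five library-drug doses (not always all listed) in √10 steps, by pin tool, on the day after seeding. Nuclei were counted after 5 days, and relative viability is the treated-to-vehicle ratio of nuclei counts. Values are medians of duplicate plates.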

[1] = compound: O=S(=O)(c1ccccc1)N(CC(F)(F)F)c1ccc(C(O)(C(F)(F)F)C(F)(F)F)cc1 + C[C@@H](Oc1cc(-c2cnn(C3CCNCC3)c2)cnc1N)c1c(Cl)ccc(F)c1Cl [Crizotinib] (partner 1 µM)
How it was run: as §1

[2] = compound: O=S(=O)(c1ccccc1)N(CC(F)(F)F)c1ccc(C(O)(C(F)(F)F)C(F)(F)F)cc1 + Nc1ncn([C@H]2C[C@H](O)[C@@H](CO)O2)c(=O)n1 [Decitabine] (partner 2 µM)
How it was run: as §1

RO-3306 + Lapatinib = compound: C1=CC2=C(C=CC(=C2)C=C3C(=O)NC(=NCC4=CC=CS4)S3)N=C1 [RO-3306] + CS(=O)(=O)CCNCc1ccc(-c2ccc3ncnc(Nc4ccc(OCc5cccc(F)c5)c(Cl)c4)c3c2)o1 [Lapatinib] (partner 2 µM)
How it was run: as §1

[3] = compound: O=S(=O)(c1ccccc1)N(CC(F)(F)F)c1ccc(C(O)(C(F)(F)F)C(F)(F)F)cc1 + CC(=O)Nc1cccc(-n2c(=O)n(C3CC3)c(=O)c3c(Nc4ccc(I)cc4F)n(C)c(=O)c(C)c32)c1 [Trametinib] (partner 0.02 µM)
How it was run: as §1

UMC-11 was tested, and the relative viability (RO-3306 + Trametinib; first compound 0.01 µM) was 0.734, the relative viability (RO-3306 + Trametinib; first compound 0.03162 µM) was 0.679 and the relative viability (RO-3306 + Trametinib; first compound 0.1 µM) was 0.641. For the same cell line, the relative viability (RO-3306 + Trametinib; first compound 0.3162 µM) was 0.793, the relative viability (RO-3306 + Trametinib; first compound 1 µM) was 0.531 and the relative viability ([1]; first compound 0.8 µM) was 0.585. It also gave a relative viability ([1]; first compound 2.53 µM) of 0.583, a relative viability ([1]; first compound 8 µM) of 0.749 and a relative viability ([2]; first compound 0.8 µM) of 0.587. The relative viability ([2]; first compound 2.53 µM) was 0.471, the relative viability ([2]; first compound 8 µM) was 0.681 and the relative viability (RO-3306 + Lapatinib; first compound 0.01 µM) was 1.06. The relative viability (RO-3306 + Lapatinib; first compound 0.03162 µM) was 0.676, the relative viability (RO-3306 + Lapatinib; first compound 0.1 µM) was 0.829 and the relative viability (RO-3306 + Lapatinib; first compound 0.3162 µM) was 0.971. For the same cell line, the relative viability (RO-3306 + Lapatinib; first compound 1 µM) was 0.671, the relative viability ([3]; first compound 0.8 µM) was 0.796 and the relative viability ([3]; first compound 2.53 µM) was 0.711. For the same cell line, the relative viability ([3]; first compound 8 µM) was 0.862.
